Like-named read-outs stand apart in the source and are kept apart here.
What was measured:
Type in all cases: cell-based
GLP-1R [1] = target: T1, GLP-1R (Homo sapiens, UniProt P43220); assay: HitHunter cAMP assay (GLP-1R); details: cAMP; for Emax: read-out: (Emax) GLP-1R
Method in brief: (§1)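 cAMP, luminescence read: agonist 22-pt 2× dilution in DMSO, duplicate, 30 min RT on 10,000 cells/well in 1×HBSS/10 mM HEPES/625 μM IBMX/0.2% BSA; anti-cAMP reagent 1 h RT dark, then O/N RT dark before read.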

GIP-R = target: T2, GIP-R (Homo sapiens, UniProt P48546); assay: HitHunter cAMP assay (GIP-R); details: cAMP; for Emax: read-out: (Emax) GIP-R
T2 sequence (P48546 22-466): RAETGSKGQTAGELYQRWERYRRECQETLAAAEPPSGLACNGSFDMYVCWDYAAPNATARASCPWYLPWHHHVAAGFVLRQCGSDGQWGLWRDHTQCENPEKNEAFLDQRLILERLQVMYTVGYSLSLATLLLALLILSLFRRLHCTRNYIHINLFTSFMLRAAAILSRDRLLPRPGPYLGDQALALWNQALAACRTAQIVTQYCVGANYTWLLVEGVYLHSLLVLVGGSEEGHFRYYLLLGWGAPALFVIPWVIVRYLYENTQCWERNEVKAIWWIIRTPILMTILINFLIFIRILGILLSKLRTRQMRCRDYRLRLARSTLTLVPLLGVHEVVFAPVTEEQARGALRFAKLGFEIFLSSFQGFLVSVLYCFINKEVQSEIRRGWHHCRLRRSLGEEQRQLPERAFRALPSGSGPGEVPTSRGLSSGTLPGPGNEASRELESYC
Method in brief: as §1

GLP-1R [2] = target: T1, GLP-1R; assay: PathHunter β-arrestin assay
Method in brief: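 Luminescence read-out of β-arrestin recruitment (enzyme-fragment complementation detection, 3 h at room temperature in the dark) after 90 min agonist stimulation at 37 °C. Agonists tested as 22-point 2× serial dilutions in duplicate, in medium containing 0.2% BSA.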

[3] = Table 3, read-out: EC50 GLP-1R/nM
[4] = Table 3A, read-out: EC50 GLP-1R/nM
[5] = Table 3, read-out: EC50 GIP-R/nM
[6] = Table 3A, read-out: EC50 GIP-R/nM
[7] = PathHunter β-arrestin assay, read-out: β-arrestin activity EC50

T1 sequence (P43220 24-463): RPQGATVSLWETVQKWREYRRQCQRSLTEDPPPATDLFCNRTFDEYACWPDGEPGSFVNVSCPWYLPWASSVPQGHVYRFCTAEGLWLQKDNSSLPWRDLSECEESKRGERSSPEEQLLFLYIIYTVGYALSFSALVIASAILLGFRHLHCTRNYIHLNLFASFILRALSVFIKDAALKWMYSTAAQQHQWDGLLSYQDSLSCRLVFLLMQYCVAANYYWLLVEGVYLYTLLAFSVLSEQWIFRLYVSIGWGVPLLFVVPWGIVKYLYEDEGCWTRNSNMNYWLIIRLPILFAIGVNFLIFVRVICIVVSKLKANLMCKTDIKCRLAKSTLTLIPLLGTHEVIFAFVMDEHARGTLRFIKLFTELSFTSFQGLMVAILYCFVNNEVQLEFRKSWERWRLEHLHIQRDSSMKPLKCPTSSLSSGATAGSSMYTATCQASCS

| Compound | EC50 (GLP-1R [1]; EC50 GLP-1R/nM, Table 3) | EC50 (GLP-1R [1]; EC50 GLP-1R/nM, Table 3A) | Emax (GLP-1R [1]; Table 3) | Emax (GLP-1R [1]; Table 3A) | EC50 (GIP-R; EC50 GIP-R/nM, Table 3) | EC50 (GIP-R; EC50 GIP-R/nM, Table 3A) | Emax (GIP-R; Table 3) | Emax (GIP-R; Table 3A) | EC50 (GLP-1R [2]) | EC50 (GLP-1R [1]; [3]) | EC50 (GLP-1R [1]; [4]) | EC50 (GIP-R; [5]) | EC50 (GIP-R; [6]) | EC50 (GLP-1R [2]; [7]) |
| --- | --- | --- | --- | --- | --- | --- | --- | --- | --- | --- | --- | --- | --- | --- |
| CC[C@H](C)[C@H](NC(=O)[C@H](CO)NC(=O)[C@H](Cc1ccc(O)cc1)NC(=O)[C@H](CC(=O)O)NC(=O)[C@H](CO)NC(=O)[C@@H](NC(=O)[C@H](Cc1ccccc1)NC(=O)[C@@H](NC(=O)CNC(=O)[C@H](CCC(=O)O)NC(=O)CSCC(=O)NCCN1C(=O)c2ccc(C)cc2C1=O)[C@@H](C)O)[C@@H](C)O)C(=O)N[C@@H](Cc1ccc(O)cc1)C(=O)N[C@@H](CC(C)C)C(=O)N[C@@H](CC(=O)O)C(=O)N[C@@H](CCCCN)C(=O)N[C@@H](CCC(N)=O)C(=O)N[C@@H](C)C(=O)N[C@@H](C)C(=O)NC(C)(C)C(=O)N[C@@H](CCC(=O)O)C(=O)N[C@@H](Cc1ccccc1)C(=O)N[C@H](C(=O)N[C@@H](CC(N)=O)C(=O)N[C@@H](Cc1c[nH]c2ccccc12)C(=O)N[C@@H](CC(C)C)C(=O)N[C@@H](CC(C)C)C(=O)N[C@@H](C)C(=O)NCC(=O)NCC(=O)N1CCC[C@H]1C(=O)N[C@@H](CO)C(=O)N[C@@H](CO)C(=O)NCC(=O)N[C@@H](C)C(=O)N1CCC[C@H]1C(=O)N1CCC[C@H]1C(=O)N1CCC[C@H]1C(=O)N[C@@H](CO)C(=O)N[C@@H](CCCCN)C(N)=O)C(C)C [Compound 156] | 1 to 10 nM | 1 to 10 nM | 95 to 100% | 95 to 100% | < 0.1 nM | < 0.1 nM | 116 to 118% | 116 to 118% | > 1000 nM |  |  |  |  |  |
| CC[C@H](C)[C@H](NC(=O)[C@H](CO)NC(=O)[C@H](Cc1ccc(O)cc1)NC(=O)[C@H](CC(=O)O)NC(=O)[C@H](CO)NC(=O)[C@@H](NC(=O)[C@H](Cc1ccccc1)NC(=O)[C@@H](NC(=O)CNC(=O)[C@H](CCC(=O)O)NC(=O)CCCC(=O)NCCN1C(=O)CSC1=O)[C@@H](C)O)[C@@H](C)O)C(=O)N[C@@H](Cc1ccc(O)cc1)C(=O)N[C@@H](CC(C)C)C(=O)N[C@@H](CC(=O)O)C(=O)N[C@@H](CCCCN)C(=O)N[C@@H](CCC(N)=O)C(=O)N[C@@H](C)C(=O)N[C@@H](C)C(=O)NC(C)(C)C(=O)N[C@@H](CCC(=O)O)C(=O)N[C@@H](Cc1ccccc1)C(=O)N[C@H](C(=O)N[C@@H](CC(N)=O)C(=O)N[C@@H](Cc1c[nH]c2ccccc12)C(=O)N[C@@H](CC(C)C)C(=O)N[C@@H](CC(C)C)C(=O)N[C@@H](C)C(=O)NCC(=O)NCC(=O)N1CCC[C@H]1C(=O)N[C@@H](CO)C(=O)N[C@@H](CO)C(=O)NCC(=O)N[C@@H](C)C(=O)N1CCC[C@H]1C(=O)N1CCC[C@H]1C(=O)N1CCC[C@H]1C(=O)N[C@@H](CO)C(=O)N[C@@H](CCCCN)C(N)=O)C(C)C [Compound 193] |  |  | 117% | 117% |  |  | 44% | 44% |  | 1 to 10 nM | 1 to 10 nM | 10 to 100 nM | 10 to 100 nM | > 1000 nM |
| CC[C@H](C)[C@H](NC(=O)[C@H](CO)NC(=O)[C@H](Cc1ccc(O)cc1)NC(=O)[C@H](CC(=O)O)NC(=O)[C@H](CO)NC(=O)[C@@H](NC(=O)[C@H](Cc1ccccc1)NC(=O)[C@@H](NC(=O)CNC(=O)[C@H](CCC(=O)O)NC(=O)CCC(=O)NCCN1C(=O)CSC1=O)[C@@H](C)O)[C@@H](C)O)C(=O)N[C@@H](Cc1ccc(O)cc1)C(=O)N[C@@H](CC(C)C)C(=O)N[C@@H](CC(=O)O)C(=O)N[C@@H](CCCCN)C(=O)N[C@@H](CCC(N)=O)C(=O)N[C@@H](C)C(=O)N[C@@H](C)C(=O)NC(C)(C)C(=O)N[C@@H](CCC(=O)O)C(=O)N[C@@H](Cc1ccccc1)C(=O)N[C@H](C(=O)N[C@@H](CC(N)=O)C(=O)N[C@@H](Cc1c[nH]c2ccccc12)C(=O)N[C@@H](CC(C)C)C(=O)N[C@@H](CC(C)C)C(=O)N[C@@H](C)C(=O)NCC(=O)NCC(=O)N1CCC[C@H]1C(=O)N[C@@H](CO)C(=O)N[C@@H](CO)C(=O)NCC(=O)N[C@@H](C)C(=O)N1CCC[C@H]1C(=O)N1CCC[C@H]1C(=O)N1CCC[C@H]1C(=O)N[C@@H](CO)C(=O)N[C@@H](CCCCN)C(N)=O)C(C)C [Compound 192] |  |  | 111% | 111% |  |  | 63% | 63% |  | 0.1 to 1 nM | 0.1 to 1 nM | 10 to 100 nM | 10 to 100 nM | > 1000 nM |
| CCCCCCCCCCCCCCCC(=O)N[C@@H](CCC(=O)NCCCC[C@H](NC(=O)[C@H](CO)NC(=O)[C@@H]1CCCN1C(=O)[C@@H]1CCCN1C(=O)[C@@H]1CCCN1C(=O)[C@H](C)NC(=O)CNC(=O)[C@H](CO)NC(=O)[C@H](CO)NC(=O)[C@@H]1CCCN1C(=O)CNC(=O)CNC(=O)[C@H](C)NC(=O)[C@H](CC(C)C)NC(=O)[C@H](CC(C)C)NC(=O)[C@H](Cc1c[nH]c2ccccc12)NC(=O)[C@H](CC(N)=O)NC(=O)[C@@H](NC(=O)[C@H](Cc1ccccc1)NC(=O)[C@H](CCC(=O)O)NC(=O)C(C)(C)NC(=O)[C@H](C)NC(=O)[C@H](C)NC(=O)[C@H](CCC(N)=O)NC(=O)[C@H](CCCCN)NC(=O)[C@H](CC(=O)O)NC(=O)[C@H](CC(C)C)NC(=O)[C@H](Cc1ccc(O)cc1)NC(=O)[C@@H](NC(=O)[C@H](CO)NC(=O)[C@H](Cc1ccc(O)cc1)NC(=O)[C@H](CC(=O)O)NC(=O)[C@H](CO)NC(=O)[C@@H](NC(=O)[C@H](Cc1ccccc1)NC(=O)[C@@H](NC(=O)CNC(=O)[C@H](CCC(=O)O)NC(=O)CSCC(=O)NCCN1CC(=O)NC1=O)[C@@H](C)O)[C@@H](C)O)[C@@H](C)CC)C(C)C)C(N)=O)C(=O)O [Compound 34] |  |  | 107% | 107% |  |  | 20 to 38% | 20 to 38% |  | 0.1 to 1 nM | 0.1 to 1 nM | 1 to 10 nM | 1 to 100 nM | > 1000 nM |
| CCCCCCCCCCCCCCCC(=O)N[C@@H](CCC(=O)NCCCC[C@H](NC(=O)[C@H](CO)NC(=O)[C@@H]1CCCN1C(=O)[C@@H]1CCCN1C(=O)[C@@H]1CCCN1C(=O)[C@H](C)NC(=O)CNC(=O)[C@H](CO)NC(=O)[C@H](CO)NC(=O)[C@@H]1CCCN1C(=O)CNC(=O)CNC(=O)[C@H](C)NC(=O)[C@H](CC(C)C)NC(=O)[C@H](CC(C)C)NC(=O)[C@H](Cc1c[nH]c2ccccc12)NC(=O)[C@H](CC(N)=O)NC(=O)[C@@H](NC(=O)[C@H](Cc1ccccc1)NC(=O)[C@H](CCC(=O)O)NC(=O)C(C)(C)NC(=O)[C@H](C)NC(=O)[C@H](C)NC(=O)[C@H](CCC(N)=O)NC(=O)[C@H](CCCCN)NC(=O)[C@H](CC(=O)O)NC(=O)[C@H](CC(C)C)NC(=O)[C@H](Cc1ccc(O)cc1)NC(=O)[C@@H](NC(=O)[C@H](CO)NC(=O)[C@H](Cc1ccc(O)cc1)NC(=O)[C@H](CC(=O)O)NC(=O)[C@H](CO)NC(=O)[C@@H](NC(=O)[C@H](Cc1ccccc1)NC(=O)[C@@H](NC(=O)CNC(=O)[C@H](CCC(=O)O)NC(=O)CSCC(=O)NCCN1CCNCC1=O)[C@@H](C)O)[C@@H](C)O)[C@@H](C)CC)C(C)C)C(N)=O)C(=O)O [Compound 33] |  |  | 100% | 100% |  |  | 43% | 43% |  | 0.1 to 1 nM | 0.1 to 1 nM | 10 to 100 nM | 10 to 100 nM | > 1000 nM |
| CCCCCCCCCCCCCCCC(=O)N[C@@H](CCC(=O)NCCCC[C@H](NC(=O)[C@H](CO)NC(=O)[C@@H]1CCCN1C(=O)[C@@H]1CCCN1C(=O)[C@@H]1CCCN1C(=O)[C@H](C)NC(=O)CNC(=O)[C@H](CO)NC(=O)[C@H](CO)NC(=O)[C@@H]1CCCN1C(=O)CNC(=O)CNC(=O)[C@H](C)NC(=O)[C@H](CC(C)C)NC(=O)[C@H](CC(C)C)NC(=O)[C@H](Cc1c[nH]c2ccccc12)NC(=O)[C@H](CC(N)=O)NC(=O)[C@@H](NC(=O)[C@H](Cc1ccccc1)NC(=O)[C@H](CCC(=O)O)NC(=O)C(C)(C)NC(=O)[C@H](C)NC(=O)[C@H](C)NC(=O)[C@H](CCC(N)=O)NC(=O)[C@H](CCCCN)NC(=O)[C@H](CC(=O)O)NC(=O)[C@H](CC(C)C)NC(=O)[C@H](Cc1ccc(O)cc1)NC(=O)[C@@H](NC(=O)[C@H](CO)NC(=O)[C@H](Cc1ccc(O)cc1)NC(=O)[C@H](CC(=O)O)NC(=O)[C@H](CO)NC(=O)[C@@H](NC(=O)[C@H](Cc1ccccc1)NC(=O)[C@@H](NC(=O)CNC(=O)[C@H](CCC(=O)O)NC(=O)CSCC(=O)NCCN1C[C@@H](OC)CC1=O)[C@@H](C)O)[C@@H](C)O)[C@@H](C)CC)C(C)C)C(N)=O)C(=O)O [Compound 22] | 0.1 to 1 nM | 0.1 to 1 nM | 90% | 90% | 0.1 to 1 nM | 0.1 to 1 nM | 46% | 46% | > 1000 nM |  |  |  |  |  |
